# In PubChem BioAssay AID2060349 (Molecular Pharmacology Branch, DTP, NCI, 2025):
# Tested on: 762968-020-R-J2-PDC spheroids viability
# Assay: Anticancer human tumor 762968-020-R-J2-PDC patient-derived colon carcinoma cell line growth inhibition [TAK]
# Conditions: spheroids with HUVEC and MSC; for IC50: curve of first compound; for viability, T/C: stronger effect = lower value
# Procedure, shortened: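 Tumor cells were grown as spheroids with HUVEC and hMSC (60:25:15) and treated with targeted agents combined with TAK-243 or ipatasertib. Drugs were tested in half-log steps down from near the clinical Cmax, or from 10 microM where Cmax was unknown.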
# [1] = second compound 0.3 µM, first compound 0.0316 µM
# [2] = second compound 0.3 µM, first compound 0.1 µM
# [3] = second compound 0.3 µM, first compound 0.316 µM
# [4] = second compound 0.3 µM, first compound 1 µM
# [5] = second compound 0.3 µM, first compound 3.16 µM
# [6] = second compound 0.3 µM, first compound 10 µM
# [7] = second compound 0.949 µM, first compound 0.0316 µM
# [8] = second compound 0.949 µM, first compound 0.1 µM
# [9] = second compound 0.949 µM, first compound 0.316 µM
# [10] = second compound 0.949 µM, first compound 1 µM
# [11] = second compound 0.949 µM, first compound 3.16 µM
# [12] = second compound 0.949 µM, first compound 10 µM
# [13] = second compound 3 µM, first compound 0.0316 µM
# [14] = second compound 3 µM, first compound 0.1 µM
# [15] = second compound 3 µM, first compound 0.316 µM
# [16] = second compound 3 µM, first compound 1 µM
# [17] = second compound 3 µM, first compound 3.16 µM
# [18] = second compound 3 µM, first compound 10 µM
# [19] = second compound 9.49 µM, first compound 0.0316 µM
# [20] = second compound 9.49 µM, first compound 0.1 µM
# [21] = second compound 9.49 µM, first compound 0.316 µM
# [22] = second compound 9.49 µM, first compound 1 µM
# [23] = second compound 9.49 µM, first compound 3.16 µM
# [24] = second compound 9.49 µM, first compound 10 µM
# [25] = second compound 30 µM, first compound 0.0316 µM
# [26] = second compound 30 µM, first compound 0.1 µM
# [27] = second compound 30 µM, first compound 0.316 µM
# [28] = second compound 30 µM, first compound 1 µM
# [29] = second compound 30 µM, first compound 3.16 µM
# [30] = second compound 30 µM, first compound 10 µM
# [31] = second compound 0.3 µM, first compound 0.000316 µM
# [32] = second compound 0.3 µM, first compound 0.001 µM
# [33] = second compound 0.3 µM, first compound 0.00316 µM
# [34] = second compound 0.3 µM, first compound 0.01 µM
# [35] = second compound 0.949 µM, first compound 0.000316 µM
# [36] = second compound 0.949 µM, first compound 0.001 µM
# [37] = second compound 0.949 µM, first compound 0.00316 µM
# [38] = second compound 0.949 µM, first compound 0.01 µM
# [39] = second compound 3 µM, first compound 0.000316 µM
# [40] = second compound 3 µM, first compound 0.001 µM
# [41] = second compound 3 µM, first compound 0.00316 µM
# [42] = second compound 3 µM, first compound 0.01 µM
# [43] = second compound 9.49 µM, first compound 0.000316 µM
# [44] = second compound 9.49 µM, first compound 0.001 µM
# [45] = second compound 9.49 µM, first compound 0.00316 µM
# [46] = second compound 9.49 µM, first compound 0.01 µM
# [47] = second compound 30 µM, first compound 0.000316 µM
# [48] = second compound 30 µM, first compound 0.001 µM
# [49] = second compound 30 µM, first compound 0.00316 µM
# [50] = second compound 30 µM, first compound 0.01 µM
# 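Note: spheroids exposed to drug for 7 days before readout.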
# 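Throughout, for viability, T/C: 100% = DMSO vehicle control wells.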
structure (smiles),measurement,setting,value
CC(C)(C)c1nc(-c2cccc(NS(=O)(=O)c3c(F)cccc3F)c2F)c(-c2ccnc(N)n2)s1 + CC(C)NCC(C(=O)N1CCN(c2ncnc3c2C(C)CC3O)CC1)c1ccc(Cl)cc1,IC50,second compound 0.3 µM,> 10 µM
same,IC50,second compound 0.949 µM,> 10 µM
same,IC50,second compound 3 µM,> 10 µM
same,IC50,second compound 9.49 µM,> 10 µM
same,IC50,second compound 30 µM,> 10 µM
same,"viability, T/C",[1],92.8%
same,"viability, T/C",[2],91.4%
same,"viability, T/C",[3],84.8%
same,"viability, T/C",[4],84.3%
same,"viability, T/C",[5],92.4%
same,"viability, T/C",[6],94.7%
same,"viability, T/C",[7],93.9%
same,"viability, T/C",[8],90.2%
same,"viability, T/C",[9],84.6%
same,"viability, T/C",[10],86%
same,"viability, T/C",[11],88.4%
same,"viability, T/C",[12],92.8%
same,"viability, T/C",[13],95.6%
same,"viability, T/C",[14],87.1%
same,"viability, T/C",[15],94.8%
same,"viability, T/C",[16],85.9%
same,"viability, T/C",[17],92%
same,"viability, T/C",[18],95%
same,"viability, T/C",[19],92.5%
same,"viability, T/C",[20],86.4%
same,"viability, T/C",[21],83.9%
same,"viability, T/C",[22],79.9%
same,"viability, T/C",[23],72%
same,"viability, T/C",[24],92.5%
same,"viability, T/C",[25],81.4%
same,"viability, T/C",[26],80.5%
same,"viability, T/C",[27],81.6%
same,"viability, T/C",[28],74.1%
same,"viability, T/C",[29],74.5%
same,"viability, T/C",[30],93.5%
CC(C)CC(NC(=O)CNC(=O)c1cc(Cl)ccc1Cl)B1OC(=O)CC(CC(=O)O)(C(=O)O)O1 (stereo not given) + CC(C)NCC(C(=O)N1CCN(c2ncnc3c2C(C)CC3O)CC1)c1ccc(Cl)cc1,IC50,second compound 0.3 µM,> 0.1 µM
same,IC50,second compound 0.949 µM,> 0.1 µM
same,IC50,second compound 3 µM,> 0.1 µM
same,IC50,second compound 9.49 µM,> 0.1 µM
same,IC50,second compound 30 µM,> 0.1 µM
same,"viability, T/C",[31],100%
same,"viability, T/C",[32],105%
same,"viability, T/C",[33],93.4%
same,"viability, T/C",[34],108%
same,"viability, T/C",[1],99.4%
same,"viability, T/C",[2],79.5%
same,"viability, T/C",[35],94%
same,"viability, T/C",[36],93.8%
same,"viability, T/C",[37],97.1%
same,"viability, T/C",[38],103%
same,"viability, T/C",[7],103%
same,"viability, T/C",[8],70.6%
same,"viability, T/C",[39],104%
same,"viability, T/C",[40],102%
same,"viability, T/C",[41],98.2%
same,"viability, T/C",[42],105%
same,"viability, T/C",[13],95.2%
same,"viability, T/C",[14],73.4%
same,"viability, T/C",[43],94%
same,"viability, T/C",[44],94.8%
same,"viability, T/C",[45],102%
same,"viability, T/C",[46],101%
same,"viability, T/C",[19],95.5%
same,"viability, T/C",[20],79.9%
same,"viability, T/C",[47],79%
same,"viability, T/C",[48],89.4%
same,"viability, T/C",[49],89.4%
same,"viability, T/C",[50],88%
same,"viability, T/C",[25],84.5%
same,"viability, T/C",[26],72.7%
CC(C)n1nc(-c2ccc3oc(N)nc3c2)c2c(N)ncnc21 + CC(C)NCC(C(=O)N1CCN(c2ncnc3c2C(C)CC3O)CC1)c1ccc(Cl)cc1,IC50,second compound 0.3 µM,> 0.1 µM
same,IC50,second compound 0.949 µM,> 0.1 µM
same,IC50,second compound 3 µM,> 0.1 µM
same,IC50,second compound 9.49 µM,> 0.1 µM
same,IC50,second compound 30 µM,> 0.1 µM
same,"viability, T/C",[31],96.5%
same,"viability, T/C",[32],97.1%
same,"viability, T/C",[33],101%
same,"viability, T/C",[34],91.8%
same,"viability, T/C",[1],87.5%
same,"viability, T/C",[2],72.9%
same,"viability, T/C",[35],96.9%
same,"viability, T/C",[36],96.7%
same,"viability, T/C",[37],99.9%
same,"viability, T/C",[38],99.3%
same,"viability, T/C",[7],87.4%
same,"viability, T/C",[8],73.2%
same,"viability, T/C",[39],99.5%
same,"viability, T/C",[40],95.1%
same,"viability, T/C",[41],103%
same,"viability, T/C",[42],93.4%
same,"viability, T/C",[13],92.3%
same,"viability, T/C",[14],65.7%
same,"viability, T/C",[43],94.4%
same,"viability, T/C",[44],103%
same,"viability, T/C",[45],98.3%
same,"viability, T/C",[46],93.4%
same,"viability, T/C",[19],79.1%
same,"viability, T/C",[20],63.5%
same,"viability, T/C",[47],83%
same,"viability, T/C",[48],84.2%
same,"viability, T/C",[49],84.3%
same,"viability, T/C",[50],81.9%
same,"viability, T/C",[25],74%
same,"viability, T/C",[26],63.6%
CCCS(=O)(=O)Nc1ccc(F)c(C(=O)c2c[nH]c3ncc(-c4ccc(Cl)cc4)cc23)c1F + CC(C)NCC(C(=O)N1CCN(c2ncnc3c2C(C)CC3O)CC1)c1ccc(Cl)cc1,IC50,second compound 0.3 µM,> 100 µM
same,IC50,second compound 0.949 µM,23.6 µM
same,IC50,second compound 3 µM,> 100 µM
same,IC50,second compound 9.49 µM,> 100 µM
same,IC50,second compound 30 µM,17.9 µM
same,"viability, T/C",[3],94.5%
same,"viability, T/C",[4],95.2%
same,"viability, T/C",[5],94.4%
same,"viability, T/C",[6],72.3%
same,"viability, T/C","second compound 0.3 µM, first compound 31.6 µM",13.6%
same,"viability, T/C","second compound 0.3 µM, first compound 100 µM",97.5%
same,"viability, T/C",[9],89.9%
same,"viability, T/C",[10],93.2%
same,"viability, T/C",[11],94.6%
same,"viability, T/C",[12],57.5%
same,"viability, T/C","second compound 0.949 µM, first compound 31.6 µM",1.16%
same,"viability, T/C","second compound 0.949 µM, first compound 100 µM",93.7%
same,"viability, T/C",[15],97.6%
same,"viability, T/C",[16],93.3%
same,"viability, T/C",[17],101%
same,"viability, T/C",[18],71.3%
same,"viability, T/C","second compound 3 µM, first compound 31.6 µM",0.49%
same,"viability, T/C","second compound 3 µM, first compound 100 µM",97.8%
same,"viability, T/C",[21],91.9%
same,"viability, T/C",[22],94.1%
same,"viability, T/C",[23],89.1%
same,"viability, T/C",[24],70.2%
same,"viability, T/C","second compound 9.49 µM, first compound 31.6 µM",18.5%
same,"viability, T/C","second compound 9.49 µM, first compound 100 µM",105%
same,"viability, T/C",[27],77.2%
same,"viability, T/C",[28],90.9%
same,"viability, T/C",[29],87.4%
same,"viability, T/C",[30],53.6%
same,"viability, T/C","second compound 30 µM, first compound 31.6 µM",2.13%
same,"viability, T/C","second compound 30 µM, first compound 100 µM",90.7%
